{"source": "paper PMC8271864", "about": "“Evaluation of Enzyme Inhibitory Activity of Flavonoids by Polydopamine-Modified Hollow Fiber-Immobilized Xanthine Oxidase” (Molecules, 2021)", "data": [{"target": "T1, Xanthine oxidase (XOD) (Bos taurus, UniProt P80457)", "T1 construct": "gene XDH; commercial XOD immobilized on polydopamine-modified hollow fiber (XOD@PDA@HF)", "T1 sequence (P80457 2-1332)": "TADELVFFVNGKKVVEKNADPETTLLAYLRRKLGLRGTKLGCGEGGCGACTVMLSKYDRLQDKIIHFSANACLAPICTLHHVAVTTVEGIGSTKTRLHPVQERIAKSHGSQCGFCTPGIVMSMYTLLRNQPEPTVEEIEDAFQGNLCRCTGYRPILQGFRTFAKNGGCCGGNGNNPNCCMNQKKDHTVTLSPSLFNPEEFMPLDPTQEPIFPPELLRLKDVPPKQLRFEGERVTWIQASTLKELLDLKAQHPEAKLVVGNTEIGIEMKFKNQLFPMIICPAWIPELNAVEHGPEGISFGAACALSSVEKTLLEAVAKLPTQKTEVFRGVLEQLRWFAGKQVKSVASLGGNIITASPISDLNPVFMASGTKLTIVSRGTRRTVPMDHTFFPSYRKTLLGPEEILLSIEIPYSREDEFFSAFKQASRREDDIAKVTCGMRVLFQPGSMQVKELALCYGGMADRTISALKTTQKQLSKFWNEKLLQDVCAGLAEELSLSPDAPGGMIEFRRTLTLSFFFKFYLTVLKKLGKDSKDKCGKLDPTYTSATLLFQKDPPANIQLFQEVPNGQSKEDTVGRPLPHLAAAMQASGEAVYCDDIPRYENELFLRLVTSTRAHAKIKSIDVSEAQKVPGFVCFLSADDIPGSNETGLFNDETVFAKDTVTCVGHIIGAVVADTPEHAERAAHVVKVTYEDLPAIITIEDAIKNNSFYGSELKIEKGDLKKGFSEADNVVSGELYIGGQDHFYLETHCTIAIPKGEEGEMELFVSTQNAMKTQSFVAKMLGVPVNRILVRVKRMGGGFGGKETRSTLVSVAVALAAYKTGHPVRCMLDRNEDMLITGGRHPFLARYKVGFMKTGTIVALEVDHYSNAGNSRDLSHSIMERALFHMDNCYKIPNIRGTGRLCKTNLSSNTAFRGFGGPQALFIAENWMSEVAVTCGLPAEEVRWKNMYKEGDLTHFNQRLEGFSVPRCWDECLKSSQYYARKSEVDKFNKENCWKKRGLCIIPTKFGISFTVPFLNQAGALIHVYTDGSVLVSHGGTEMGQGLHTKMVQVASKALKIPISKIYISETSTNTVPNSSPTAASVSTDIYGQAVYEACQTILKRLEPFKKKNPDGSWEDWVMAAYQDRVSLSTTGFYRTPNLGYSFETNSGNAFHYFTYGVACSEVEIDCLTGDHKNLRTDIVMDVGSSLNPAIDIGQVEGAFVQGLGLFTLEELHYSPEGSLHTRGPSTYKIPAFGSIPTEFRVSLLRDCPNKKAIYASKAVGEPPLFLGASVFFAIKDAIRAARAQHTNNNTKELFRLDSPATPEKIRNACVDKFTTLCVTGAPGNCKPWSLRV", "assay": "immobilized enzyme inhibition at […], hypoxanthine substrate, HPLC detection of uric acid", "type": "biochemical", "units": {"inhibition at 1000 µM": "%"}, "values": [{"smiles": "O=c1c(O)c(-c2ccc(O)c(O)c2)oc2cc(O)cc(O)c12", "note": "[Quercetin]", "inhibition at 1000 µM": "79.9 ± 3.5"}, {"smiles": "Oc1cc(O)c2c(c1)O[C@H](c1cc(O)c(O)c(O)c1)[C@H](O)C2", "note": "[Epigallocatechin]", "inhibition at 1000 µM": "54.92 ± 0.41"}, {"smiles": "O=c1cc(-c2ccc(O)cc2)oc2cc(O)cc(O)c12", "note": "[Apigenin]", "inhibition at 1000 µM": "80.98 ± 0.64"}, {"smiles": "O=c1c(-c2ccc(O)cc2)coc2c([C@@H]3O[C@H](CO)[C@@H](O)[C@H](O)[C@H]3O)c(O)ccc12", "note": "[Puerarin]", "inhibition at 1000 µM": "61.1 ± 6.26"}]}]}
